Data from US12162888B2, “Carboxamides as ubiquitin-specific protease inhibitors” (Valo Early Discovery, Inc., priority 2018, dated 2024).
Where two headings read alike, the source gives them in different places.

Target: T1, USP25 (USP25-His6, Boston Biochem E-546) (Homo sapiens, UniProt Q9UHP3)
T1 construct: His6 (C); purchased Boston Biochem E-546
T1 sequence (Q9UHP3 1-1055): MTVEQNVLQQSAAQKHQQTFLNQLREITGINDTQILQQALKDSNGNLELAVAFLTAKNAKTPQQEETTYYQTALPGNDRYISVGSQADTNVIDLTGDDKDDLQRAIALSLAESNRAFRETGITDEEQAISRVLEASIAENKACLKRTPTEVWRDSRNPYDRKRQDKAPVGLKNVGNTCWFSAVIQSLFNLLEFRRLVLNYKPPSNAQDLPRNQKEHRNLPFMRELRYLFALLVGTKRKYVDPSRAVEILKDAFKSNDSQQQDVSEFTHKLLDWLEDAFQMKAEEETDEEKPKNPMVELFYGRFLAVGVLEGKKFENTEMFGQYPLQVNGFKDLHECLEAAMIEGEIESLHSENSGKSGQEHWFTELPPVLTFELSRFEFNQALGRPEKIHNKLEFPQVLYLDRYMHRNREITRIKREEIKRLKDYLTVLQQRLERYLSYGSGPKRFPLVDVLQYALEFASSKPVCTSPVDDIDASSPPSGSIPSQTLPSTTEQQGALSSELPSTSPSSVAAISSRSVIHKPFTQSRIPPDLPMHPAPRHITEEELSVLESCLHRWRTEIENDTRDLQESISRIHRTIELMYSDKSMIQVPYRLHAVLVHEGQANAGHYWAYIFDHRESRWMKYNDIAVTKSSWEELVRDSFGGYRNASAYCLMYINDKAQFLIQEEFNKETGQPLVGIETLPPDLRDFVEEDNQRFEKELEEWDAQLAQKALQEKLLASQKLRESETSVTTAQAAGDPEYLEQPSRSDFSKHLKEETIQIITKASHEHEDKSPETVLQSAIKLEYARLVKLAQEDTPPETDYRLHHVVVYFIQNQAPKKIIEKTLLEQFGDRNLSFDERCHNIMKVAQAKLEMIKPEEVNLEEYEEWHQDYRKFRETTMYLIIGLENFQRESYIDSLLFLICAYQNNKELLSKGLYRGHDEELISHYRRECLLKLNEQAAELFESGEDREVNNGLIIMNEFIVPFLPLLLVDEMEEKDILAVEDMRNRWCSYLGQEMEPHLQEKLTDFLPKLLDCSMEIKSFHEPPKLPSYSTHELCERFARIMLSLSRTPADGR
Experiment: Ubiquitin-Rhodamine 110 Assay for USP25 Activity, Example A-3
Format: biochemical
Details: Ubiquitin-Rhodamine 110 assay, Example A-3
In short: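 USP25-His6 ([…] final as stated) preincubated 30 min with compound (10-point, 25 μM to 1.3 nM), then Ub-Rh110 at 25 nM (<<Km) added in pH 8.0 Tris buffer with BME, BGG and Triton X-100. Reaction stopped after 45 min at room temperature with 10 mM citric acid; fluorescence read at 485/535 nm.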

Compound | IC50 (read-out: USP25 A-3 IC50 range) | IC50 (biochemical IC50 range, read-out: USP25 A-3)
Cc1ccc2c(N)c(C(=O)N[C@H]3COc4cc(N5C[C@H](N)[C@@]6(CCOC6)C5)ccc4C3)sc2n1 (single isomer, unassigned) [Example 439] | 200 to 2000 nM | 
Cc1ccc2c(N)c(C(=O)N[C@@H]3CCc4cc(N5CCNCC5)ccc4C3)sc2n1 (single isomer, unassigned) [Example 11-22] | 200 to 2000 nM | 
CN[C@@H]1CCN(c2ccc3c(c2)CC[C@@H](NC(=O)c2sc4nc(C)cnc4c2N)C3)C1 (single isomer, unassigned) [Example 11-28] | > 2000 nM | 
Cc1ccc2c(N)c(C(=O)N[C@H]3COc4cc(N5C[C@H](N)[C@@](C)(CF)C5)ccc4C3)sc2n1 [Example 659, 3-amino-N-[(3R)-7-[(3S,4R)-4-amino-3-(fluoromethyl)-3-methylpyrrolidin-1-yl]-3,4-dihydro-2H-1-benzopyran-3-yl]-6-methylthieno[2,3-b]pyridine-2-carboxamide] |  | 50 to 200 nM
Cc1ccc2c(N)c(C(=O)N[C@H]3CCc4cc(N5CC6CNCC(C5)O6)cc(F)c4C3)sc2n1 (single isomer, unassigned) [Example 11-39] | > 2000 nM | 
Cc1ccc2c(N)c(C(=O)N[C@@H]3CCc4c(C#N)c(N5CC6CNCC(C5)O6)cc(F)c4C3)sc2n1 (single isomer, unassigned) [Example 14-16] | 200 to 2000 nM | 
Cc1nc2sc(C(=O)N[C@H]3CCc4cc(N5CCNCC5)ccc4C3)c(N)c2s1 (single isomer, unassigned) [Example 11-33] | 200 to 2000 nM | 
CO[C@H]1CN(c2cc(F)c3c(c2C#N)CC[C@H](NC(=O)c2sc4nc(C)ccc4c2N)C3)C[C@@H]1N (single isomer, unassigned) [Example 14-23] | 200 to 2000 nM | 
Cc1ccc2c(N)c(C(=O)N[C@@H]3CCc4nc(N5C[C@@H](CF)[C@@H](N)C5)ncc4C3)sc2n1 [Example 445, 3-amino-N-[(6R)-2-[(3R,4R)-3-amino-4-(fluoromethyl)pyrrolidin-1-yl]-5,6,7,8-tetrahydroquinazolin-6-yl]-6-methylthieno[2,3-b]pyridine-2-carboxamide] | > 2000 nM | 
